Assay results reported in patent US20260217701A1, “SELECTIVE BET INHIBITORS AND USES THEREOF” (Tay Therapeutics Limited, priority 2022, published 2026).
Several values for one entry are separate records, joined by “and”; a condition that tells them apart may be missing. Identical values can stand only once. Like-named read-outs stand apart in the source and are kept apart here.

Legend:
CXCL10 = CXCL10 release from IFN-γ stimulated human PBMCs (ELISA); format: cell-based; details: for IC50: Homo sapiens, PBMC
Protocol: To analyze the selectivity of Compound A for CXCL10, human PBMCs were similarly thawed, and compounds were similarly prepared (final compound concentration ranged from 30,000 nM to 0.005 nM, with a final DMSO concentration per well of 0.3%). PBMCs were seeded into 96-well plates at a concentration of 2×10^5 cells/well (volume of 190 μL) and treated with various concentrations of Compound A for 1 hour. The PBMCs were then stimulated with IFN-γ (15 ng/ml final concentration in a volume of 10 μL), and supernatants were collected 24 hours after the exposure to IFN-γ. Levels of CXCL10 in the supernatant were then analyzed by ELISA (Invitrogen).

UUO study: body weight = format: in vivo; details: UUO rats; for Body Weight: 10 mg/kg QD, 10 mg/kg; for Mean + SD of Body Weight: group 3, group mean
[1] = SLE (lupus) model: body weight; format: in vivo, MRL/MpJ-Faslpr mice
Protocol: Female MRL/MpJ-Faslpr mice (The Jackson Laboratory) were used to assess the efficacy of Compound A in treating lupus. Starting when animals were 10 weeks of age, protein concentration in urine was measured using urine dipsticks.
At the start of the study, each group in the study had two animals that were 9 weeks old, and all others were 10 weeks old. Dosing of all animals with the test compounds began when the older animals were 11 weeks old. […] […] Dosing was at a consistent time each dosing day throughout the study.
Compound A may be formulated as illustrated in Experimental Method A (see Table 2E.). […] A stock solution of Compound A in DMSO (stock solution concentration of Compound A of 40 mg/mL) was prepared and aliquots for weekly preparations were frozen at −20° C. On each preparation day, a stock solution aliquot was thawed and diluted with other vehicle components to the desired concentration. Formulated Compound A and vehicle were at room temperature for dosing.
The study began when the older animals were 11 weeks old, and concluded when the older animals were 19 weeks old. Body weight was recorded once a week, with the exception of two weight measurements taken the first week of the study (when the older animals were 11 weeks old). Proteinuria was measured in the urine of animals with urine dipsticks once a week, starting when the older animals were 10 weeks old. […] Blood samples were taken retro-orbitally at the start of the study to establish a baseline (15 animals, 3 per group), and when the older animals were 16 weeks (all animals) and when animals were 19 weeks (all animals) at the conclusion of the study. Blood urea nitrogen (BUN) was measured in all animals at study termination in blood samples. After blood collection, animals were euthanized, perfused with PBS, and the left kidneys were collected and weighed and fixed in 10% buffered formalin. Left kidneys were then processed to a formalin-fixed, paraffin-embedded (FFPE) block, and histology was analyzed in Periodic Acid-Schiff-stained sections (1 section per slide), using the criteria described in Alperovich et al., Lupus, 16:18-24 (2007). Right kidneys were weighed and snap-frozen at −80° C. Spleens were also collected and weighed. SLE in animals treated with a BET inhibitor and vehicle.

[2] = CIA study: clinical observations; format: in vivo, Lewis rats; details: CIA rats

Cn1cc(-c2ccccc2)c(-c2cn(C)c(=O)c3[nH]c(-c4cnn(C(F)(F)F)c4)cc23)cc1=O [Compound A, 6-methyl-4-(1-methyl-2-oxo-5-phenyl-1,2-dihydropyridin-4-yl)-2-(1-(trifluoromethyl)-1H-pyrazol-4-yl)-1,6-dihydro-7H-pyrrolo[2,3-c]pyridin-7-one]
Percent Inhibition Relative to Control (CXCL10) (CXCL10; Compound Conc. 10 μM, Donors 1-6 two values each, Donors 7-10 three values each): 101.41%
IC50 (CXCL10; Average preliminary biomarker assay, read-out: CXCL10 IC50 Mean): 1000 nM
IC50 (CXCL10; Preliminary biomarker assay, Test Subject 1, read-out: CXCL 10 IC50): 1000 nM
IC50 (CXCL10; ELISA, read-out: Selectivity (IC50) CXCL10): 3640 nM
inhibition of CXCL10 (CXCL10; human PBMCs, IFN-γ, 24 hours): minimal inhibition
Body Weight (UUO study: body weight; individual animals 1-8, Day 0): 304 g (2×) and 308 g and 291 g and 306 g and 307 g
Body Weight (UUO study: body weight; individual animals 1-8, Day 1): 290 g and 296 g and 304 g and 281 g and 279 g and 298 g
Body Weight (UUO study: body weight; individual animals 1-8, Day 2): 283 g and 294 g and 297 g and 281 g and 275 g and 290 g
Body Weight (UUO study: body weight; individual animals 1-8, Day 3): 286 g and 292 g and 298 g and 280 g and 276 g and 288 g
Body Weight (UUO study: body weight; individual animals 1-8, Day 4): 285 g and 288 g and 301 g and 277 g and 275 g and 294 g
Body Weight (UUO study: body weight; individual animals 1-8, Day 5): 283 g and 290 g and 300 g and 278 g and 268 g and 285 g
Body Weight (UUO study: body weight; individual animals 1-8, Day 6): 283 g and 290 g (2×) and 297 g and 281 g and 266 g and 275 g
Body Weight (UUO study: body weight; individual animals 1-8, Day 7): 290 g and 285 g and 303 g and 280 g and 260 g and 299 g and 274 g
Body Weight (UUO study: body weight; individual animals 1-8, Day 8): 295 g and 284 g and 304 g and 279 g and 262 g and 303 g and 275 g
Body Weight (UUO study: body weight; individual animals 1-8, Day 9): 305 g and 284 g (2×) and 310 g and 279 g and 304 g and 275 g
Body Weight (UUO study: body weight; individual animals 1-8, Day 10): 300 g and 284 g and 311 g and 277 g and 270 g and 304 g
Body Weight (UUO study: body weight; individual animals 1-8, Day 11): 298 g and 297 g and 311 g and 278 g and 271 g and 315 g
Body Weight (UUO study: body weight; individual animals 1-8, Day 12): 295 g and 291 g and 319 g and 283 g and 271 g and 315 g
Body Weight (UUO study: body weight; individual animals 1-8, Day 13): 294 g and 293 g and 318 g and 286 g and 270 g and 320 g
Body Weight (UUO study: body weight; individual animals 1-8, Day 14): 298 g and 296 g and 322 g and 291 g and 281 g and 331 g
Body Weight (UUO study: body weight; individual animals 1-8, Day −1): 284 g and 304 g and 299 g and 289 g and 297 g and 301 g
Mean + SD of Body Weight (UUO study: body weight; Day 0): 302 ± 6 g
Mean + SD of Body Weight (UUO study: body weight; Day 1): 288 ± 11 g
Mean + SD of Body Weight (UUO study: body weight; Day 2): 285 ± 8 g
Mean + SD of Body Weight (UUO study: body weight; Day 3): 284 ± 9 g
Mean + SD of Body Weight (UUO study: body weight; Day 4): 283 ± 11 g
Mean + SD of Body Weight (UUO study: body weight; Day 5): 281 ± 11 g
Mean + SD of Body Weight (UUO study: body weight; Day 6): 282 ± 10 g
Mean + SD of Body Weight (UUO study: body weight; Day 7): 284 ± 14 g
Mean + SD of Body Weight (UUO study: body weight; Day 8): 285 ± 15 g
Mean + SD of Body Weight (UUO study: body weight; Day 9): 291 ± 13 g
Mean + SD of Body Weight (UUO study: body weight; Day 10): 289 ± 14 g
Mean + SD of Body Weight (UUO study: body weight; Day 11): 292 ± 17 g
Mean + SD of Body Weight (UUO study: body weight; Day 12): 294 ± 17 g
Mean + SD of Body Weight (UUO study: body weight; Day 13): 296 ± 17 g
Mean + SD of Body Weight (UUO study: body weight; Day 14): 300 ± 18 g
Mean + SD of Body Weight (UUO study: body weight; Day −1): 294 ± 7 g
Body weight course (UUO study: body weight; 10 mg/kg daily, 14-day study): slight weight loss over the course of the 14-day study before regaining their original weight
Relative end body weight (% of Week 11) ± SEM ([1]; 1 mg/kg): 114.5% ± 1.5%
Weight gain relative to control groups ([1]; 1 mg/kg and 10 mg/kg): improved weight gains relative to the control groups
Relative end body weight (% of Week 11) ± SEM ([1]; 3 mg/kg): 110.7% ± 2.1%
Relative end body weight (% of Week 11) ± SEM ([1]; 10 mg/kg): 114.4% ± 1.6%
Mean Body Weight ([1]; Compound A 1 mg/kg PO QD, Week 11): 35.2 g
Mean Body Weight ([1]; Compound A 1 mg/kg PO QD, Week 12): 36.4 g
Mean Body Weight ([1]; Compound A 1 mg/kg PO QD, Week 13): 37.6 g
Mean Body Weight ([1]; Compound A 1 mg/kg PO QD, Week 14): 38.5 g
Mean Body Weight ([1]; Compound A 1 mg/kg PO QD, Week 15): 38.9 g
Mean Body Weight ([1]; Compound A 1 mg/kg PO QD, Week 16): 40.0 g
Mean Body Weight ([1]; Compound A 1 mg/kg PO QD, Week 17): 39.5 g
Mean Body Weight ([1]; Compound A 1 mg/kg PO QD, Week 18): 39.7 g
Mean Body Weight ([1]; Compound A 1 mg/kg PO QD, Week 19): 40.2 g
Mean Body Weight ([1]; Compound A 3 mg/kg PO QD, Week 11): 35.0 g
Mean Body Weight ([1]; Compound A 3 mg/kg PO QD, Week 12): 35.0 g
Mean Body Weight ([1]; Compound A 3 mg/kg PO QD, Week 13): 36.5 g
Mean Body Weight ([1]; Compound A 3 mg/kg PO QD, Week 14): 37.4 g
Mean Body Weight ([1]; Compound A 3 mg/kg PO QD, Week 15): 37.9 g
Mean Body Weight ([1]; Compound A 3 mg/kg PO QD, Week 16): 38.7 g
Mean Body Weight ([1]; Compound A 3 mg/kg PO QD, Week 17): 38.6 g
Mean Body Weight ([1]; Compound A 3 mg/kg PO QD, Week 18): 38.1 g
Mean Body Weight ([1]; Compound A 3 mg/kg PO QD, Week 19): 38.6 g
Mean Body Weight ([1]; Compound A 10 mg/kg PO QD, Week 11): 35.1 g
Mean Body Weight ([1]; Compound A 10 mg/kg PO QD, Week 12): 35.6 g
Mean Body Weight ([1]; Compound A 10 mg/kg PO QD, Week 13): 37.1 g
Mean Body Weight ([1]; Compound A 10 mg/kg PO QD, Week 14): 37.8 g
Mean Body Weight ([1]; Compound A 10 mg/kg PO QD, Week 15): 38.8 g
Mean Body Weight ([1]; Compound A 10 mg/kg PO QD, Week 16): 39.3 g
Mean Body Weight ([1]; Compound A 10 mg/kg PO QD, Week 17): 39.3 g
Mean Body Weight ([1]; Compound A 10 mg/kg PO QD, Week 18): 39.4 g
Mean Body Weight ([1]; Compound A 10 mg/kg PO QD, Week 19): 39.9 g
Clinical observations ([2]; 1 mg/kg, Day 16): Diarrhea
Clinical observations ([2]; 3 mg/kg, Day 13): Diarrhea
Clinical observations ([2]; 3 mg/kg, Day 14): Diarrhea
Clinical observations ([2]; 3 mg/kg, Day 15): Diarrhea
Clinical observations ([2]; 3 mg/kg, Day 16): Diarrhea
Clinical observations ([2]; 3 mg/kg, Day 21): Diar-
Clinical observations ([2]; 10 mg/kg, Day 12): Diarrhea
Clinical observations ([2]; 10 mg/kg, Day 13): Diarrhea
Clinical observations ([2]; 10 mg/kg, Day 14): Diarrhea
Clinical observations ([2]; 10 mg/kg, Day 15): Diarrhea
Clinical observations ([2]; 10 mg/kg, Day 16): Diarrhea
Clinical observations ([2]; 10 mg/kg, Day 17): Diarrhea
Clinical observations ([2]; 10 mg/kg, Day 18): Diarrhea
